According to patent EP0633893B1, “17-SUBSTITUTED STEROIDS USEFUL IN CANCER TREATMENT” (priority 1992, dated 1993):
Where two headings read alike, the source gives them in different places.

Columns and labels:
[1] = tested on: testosterone; assay: In vivo endocrine test in mice: RIA of plasma testosterone; settings: 2 weeks, plasma 24 hours after last injection, mean ± standard error
Protocol: Male HWT mice, 12 weeks old, were treated daily for 2 weeks, with 5 animals per treatment group. […] The test compounds were made up in 5% benzyl alcohol, 95% safflower oil, and were given i.p.. In addition to an untreated control group of animals, there was also a solvent control group which received the same volume of liquid as the test group (5ml/kg) but no test compound. All animals were sacrificed 24 hours after the last injection. Blood was collected by cardiac puncture into heparinized tubes, and the plasma used for RIA (radio immunoassay) of testosterone and luteinising hormone.

[2] = tested on: Male HWT mice; settings: mouse, in vivo; for Post mortem examination: appearance of organs / Post mortem examination: deposits: ip
Protocol: (§1) Male HWT mice, 12 weeks old, were treated daily for 2 weeks, with 5 animals per treatment group. The test compounds were the compound of Examples 1 and 4 (as representative of compounds of the invention having the pregenolone-like and progesterone-like skeletons respectively). Ketoconazole was also tested at three different doses. The test compounds were made up in 5% benzyl alcohol, 95% safflower oil, and were given i.p.. In addition to an untreated control group of animals, there was also a solvent control group which received the same volume of liquid as the test group (5ml/kg) but no test compound. All animals were sacrificed 24 hours after the last injection. Blood was collected by cardiac puncture into heparinized tubes, and the plasma used for RIA (radio immunoassay) of testosterone and luteinising hormone. The following organs were removed and weighed: adrenals, prostate, seminal vesicles, testes, kidneys. There was no significant body weight loss in any group of mice during the experiments.
In Ketoconazole-treated animals, adhesions were found in 2/5,2/5,4/5 of the low/middle/top dose groups. […] The livers were brown in the middle/top dose groups.

[3] = target: T1, aromatase (Homo sapiens, UniProt P11511); assay: biochemical
T1 sequence (P11511 1-503): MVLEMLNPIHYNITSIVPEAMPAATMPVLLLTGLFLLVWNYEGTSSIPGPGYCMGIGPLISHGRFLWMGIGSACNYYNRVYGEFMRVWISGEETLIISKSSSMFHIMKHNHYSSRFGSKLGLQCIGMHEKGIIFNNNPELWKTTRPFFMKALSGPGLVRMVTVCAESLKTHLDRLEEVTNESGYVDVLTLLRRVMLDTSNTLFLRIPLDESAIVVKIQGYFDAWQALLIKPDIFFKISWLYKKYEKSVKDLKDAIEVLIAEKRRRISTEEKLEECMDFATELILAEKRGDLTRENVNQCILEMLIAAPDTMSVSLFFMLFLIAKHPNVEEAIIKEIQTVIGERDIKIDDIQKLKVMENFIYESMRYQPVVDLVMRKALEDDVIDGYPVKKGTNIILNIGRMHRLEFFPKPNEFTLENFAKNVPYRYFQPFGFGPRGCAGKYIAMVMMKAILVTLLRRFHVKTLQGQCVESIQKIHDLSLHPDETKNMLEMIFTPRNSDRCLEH
Protocol: Aromatase activity was determined by the method of A. B. Foster et al., J. Med. Chem. 26, 50-54 (1983), using human placental microsomes.

[4] = tested on: Male HWT mice; assay type: in vivo; settings: daily for 2 weeks, mean ± standard error
Protocol: as §1

[5] = tested on: luteinising hormone; assay: In vivo endocrine test in mice: RIA of plasma luteinising hormone; settings: 2 weeks, plasma 24 hours after last injection, mean ± standard error
Protocol: as §1

[6] = target: T2, 17α-hydroxylase (Homo sapiens, UniProt P05093); assay: Determination of 17α-hydroxylase (human testicular microsomes, 3H-progesterone substrate, HPLC); assay type: biochemical
T2 construct: The microsomal pellet was then resuspended in 50mM sodium phosphate pH 7.4/glycerol (3/1 v/v) and stored in aliquots in liquid nitrogen; from tissue; host or cells: human testis microsomes
T2 sequence (P05093 1-508): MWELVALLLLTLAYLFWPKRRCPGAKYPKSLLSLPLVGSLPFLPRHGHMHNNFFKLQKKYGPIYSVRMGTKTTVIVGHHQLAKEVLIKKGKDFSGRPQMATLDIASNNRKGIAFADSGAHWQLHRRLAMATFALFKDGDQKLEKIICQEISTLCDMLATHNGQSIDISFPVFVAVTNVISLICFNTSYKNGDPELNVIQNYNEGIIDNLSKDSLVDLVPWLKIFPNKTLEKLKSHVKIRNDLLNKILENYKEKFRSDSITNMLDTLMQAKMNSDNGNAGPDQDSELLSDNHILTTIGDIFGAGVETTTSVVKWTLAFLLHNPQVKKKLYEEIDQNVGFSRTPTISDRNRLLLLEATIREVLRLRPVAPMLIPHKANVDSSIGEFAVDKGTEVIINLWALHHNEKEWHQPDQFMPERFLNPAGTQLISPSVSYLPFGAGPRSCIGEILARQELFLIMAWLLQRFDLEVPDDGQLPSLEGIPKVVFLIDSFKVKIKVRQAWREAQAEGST
Protocol: Human testes were obtained from previously untreated patients undergoing orchidectomy for prostatic cancer. The testes were decapsulated and stored in liquid nitrogen until use. A microsomal preparation was prepared essentially as described by S. E. Barrie et al., J. Steroid Biochem. 6, 1191-5, (1989). The material was then thawed, finely chopped, and homogenised in 0.25M sucrose (5ml/g wet weight) using a Potter homogeniser. The homogenate was centrifuged at 12000g for 30 min, and then the microsomes were pelleted by spinning the supernatant at 100,000g for lhr. The pellet was washed by being resuspended in 0.25M sucrose and repelleted. The microsomal pellet was then resuspended in 50mM sodium phosphate pH 7.4/glycerol (3/1 v/v) and stored in aliquots in liquid nitrogen.
The basic assay mixture was EDTA (0.2mM), dithiothreitol (DTT; 0.1mM), NADPH (0.25mM), glucose 6-phosphate dehydrogenase (G6PDH; 6.25 µg/ml), MgCl2 (1mM), glucose 6-phosphate (G6P; 10mM) and the substrate, ^3H-progesterone (3µM) in sodium phosphate (50mm), pH 7.4. The compounds under test were dissolved in 50% DMSO and the final concentrations of ethanol and DMSO were 1% each. The assay reaction was carried out for 1 hour and was terminated by the addition of 2 vols. of methanol-acetonitrile (2:1) containing approx. 100µM unlabelled progesterone, 17α-hydroxyprogesterone, androstenedione, testosterone, and 16α-hydroxyprogesterone.
The separation of the steroids by HPLC was carried out using an "Uptight" guard column packed with 40-63µm Nucleosil C18 and a 10cm main column packed with 5µm Nucleosil C18 and 60% methanol as eluant. The radioactivity in the peaks of interest was monitored on-line by mixing the HPLC effluent 1:1 with Ecoscint A (National Diagnostics) scintillation fluid, containing 25% acetonitrile, and passing the mixture through a Berthold LB506C radiochemical monitor. The hydroxylase activity was measured as the production of 17α-hydroxyprogesterone, androstenedione and testosterone.
The enzyme activity was measured in the presence of at least 4 concentrations of each compound.

[7] = target: T3, C17-C20 lyase (Homo sapiens, UniProt P05093); assay: Determination of C17-C20 lyase (human testicular microsomes, 3H-17α-hydroxyprogesterone substrate, HPLC); assay type: biochemical
T3 construct: The microsomal pellet was then resuspended in 50mM sodium phosphate pH 7.4/glycerol (3/1 v/v) and stored in aliquots in liquid nitrogen; from tissue; host or cells: human testis microsomes
T3 sequence (P05093 1-508): T2 sequence (P05093 1-508)
Protocol: Human testes were obtained from previously untreated patients undergoing orchidectomy for prostatic cancer. The testes were decapsulated and stored in liquid nitrogen until use. […] The material was then thawed, finely chopped, and homogenised in 0.25M sucrose (5ml/g wet weight) using a Potter homogeniser. The homogenate was centrifuged at 12000g for 30 min, and then the microsomes were pelleted by spinning the supernatant at 100,000g for lhr. The pellet was washed by being resuspended in 0.25M sucrose and repelleted. The microsomal pellet was then resuspended in 50mM sodium phosphate pH 7.4/glycerol (3/1 v/v) and stored in aliquots in liquid nitrogen.
The mixture was the same as described above for the 17«-hydroxylase except that the substrate was ^3H-17α-hydroxyprogesterone.
The HPLC separation used for the lyase involved a mini-re-column "Uptight Guard Column" packed with PELL-ODS (pellicular octadecyl silica) and a 10cm. main column "Apex C18" column packed with 5µ APEX-CAT silica. The eluant was 38:12:50 methanol:acetonitrile:water flowing at lml/min. The effluent was mixed 1:1 with Ecoscint A containing 5% methanol and 5% acetonitrile and the radioactivity was measured directly by a Berthold LB506C radiochemical detector. The lyase activity was measured as the production of androstenedione and testosterone.
The enzyme activity was measured in the presence of at least 4 concentrations of each compound. The data were for the 4-pyridyl and 2-picolyl compounds of Table 1 fitted by linear regression to the Dixon equation (M. Dixon, E.C. Webb, Enzymes, 2nd ed., Academic Press, New York, 1964). Data for all the other compounds were fitted by non-linear regression to the median effect equation of Chou, J. Theoret.

[8] = approx. 4nM enzyme, read-out: IC50 (µM) Hydroxylase
[9] = approx. 4nM enzyme, read-out: IC50 (µM) Lyase
[10] = 10nM hydroxylase, read-out: IC50 (µM) Hydroylase
[11] = 25nM lyase, read-out: IC50 (µM) Lyase

SMILES: CC(=O)O[C@H]1CC[C@@]2(C)C(=CC[C@@H]3[C@@H]2CC[C@]2(C)C(c4cccnc4)=CC[C@@H]32)C1 [Ex. 1, 3β-Acetoxy-17-(3-pyridyl)androsta-5,16-diene]
- Testosterone ([1]; 0.02Mmol/Kg/Day i.p.): 2.7 ± 0.5 nM
- Testosterone ([1]; 0.5Mmol/Kg/Day i.p.): 0.1 ± 0.0 nM
- Testosterone ([1]; i.p.): 0.2 ± 0.1 nM
- Post mortem examination: appearance of organs [2]: all organs looked normal
- Post mortem examination: deposits [2]: oil/white deposits i.p.
- IC50 [3]: > 20000 nM
- Mean weight Kidneys ([4]; 0.02 mmol/kg/day i.p.): 604 ± 24 mg
- Mean weight Prostate ([4]; 0.02 mmol/kg/day i.p.): 8.0 ± 0.6 mg
- Mean weight Seminal Vesicles ([4]; 0.02 mmol/kg/day i.p.): 136 ± 4 mg
- Mean weight Testes ([4]; 0.02 mmol/kg/day i.p.): 134 ± 4 mg
- Mean weight Kidneys ([4]; 0.1 mmol/kg/day i.p.): 500 ± 8 mg
- Mean weight Prostate ([4]; 0.1 mmol/kg/day i.p.): 5.3 ± 0.3 mg
- Mean weight Seminal Vesicles ([4]; 0.1 mmol/kg/day i.p.): 51 ± 6 mg
- Mean weight Testes ([4]; 0.1 mmol/kg/day i.p.): 95 ± 3 mg
- Mean weight Kidneys ([4]; 0.5 mmol/kg/day i.p.): 449 ± 12 mg
- Mean weight Prostate ([4]; 0.5 mmol/kg/day i.p.): 5.6 ± 0.6 mg
- Mean weight Seminal Vesicles ([4]; 0.5 mmol/kg/day i.p.): 25 ± 2 mg
- Mean weight Testes ([4]; 0.5 mmol/kg/day i.p.): 56 ± 2 mg
- LH ([5]; 0.02Mmol/Kg/Day i.p.): 3.4 ± 0.5 ng/mL
- LH ([5]; 0.1Mmol/Kg/Day i.p.): 2.55 ± 0.45 ng/mL
- LH ([5]; 0.5Mmol/Kg/Day i.p.): 2.25 ± 0.67 ng/mL

SMILES: C[C@]12CC[C@H](O)CC1=CC[C@@H]1[C@@H]2CC[C@]2(C)C(c3cccnc3)=CC[C@@H]12 [Ex. 2, 17-(3-Pyridyl)androsta-5,16-dien-3β-ol]
- IC50 [6, 8]: 0.004 µM
- IC50 [7, 9]: 0.0029 µM

SMILES: C[C@]12CCC=CC1=CC[C@@H]1[C@@H]2CC[C@]2(C)C(c3cccnc3)=CC[C@@H]12 [Ex. 3, 17-(3-Pyridyl)androsta-3,5,16-triene]
- IC50 [6, 8]: 0.0125 µM
- IC50 [7, 9]: 0.0056 µM

SMILES: C[C@]12CCC(=O)C=C1CC[C@@H]1[C@@H]2CC[C@]2(C)C(c3cccnc3)=CC[C@@H]12 [Ex. 4, 17-(3-Pyridyl)androsta-4,16-dien-3-one]
- IC50 [6, 8]: 0.0028 µM
- Testosterone ([1]; 0.02Mmol/Kg/Day i.p.): 4.5 ± 0.3 nM
- Testosterone ([1]; 0.5Mmol/Kg/Day i.p.): 0.4 ± 0.1 nM
- Testosterone ([1]; i.p.): 3.5 ± 1.0 nM
- IC50 [7, 9]: 0.0021 µM
- Post mortem examination: appearance of organs [2]: all organs looked normal
- Post mortem examination: deposits [2]: white deposits throughout the abdomen
- IC50 [3]: 1000 nM
- Mean weight Kidneys ([4]; 0.02 mmol/kg/day i.p.): 599 ± 29 mg
- Mean weight Prostate ([4]; 0.02 mmol/kg/day i.p.): 5.9 ± 0.8 mg
- Mean weight Seminal Vesicles ([4]; 0.02 mmol/kg/day i.p.): 108 ± 4 mg
- Mean weight Testes ([4]; 0.02 mmol/kg/day i.p.): 117 ± 9 mg
- Mean weight Kidneys ([4]; 0.1 mmol/kg/day i.p.): 549 ± 28 mg
- Mean weight Prostate ([4]; 0.1 mmol/kg/day i.p.): 6.4 ± 0.5 mg
- Mean weight Seminal Vesicles ([4]; 0.1 mmol/kg/day i.p.): 61 ± 9 mg
- Mean weight Testes ([4]; 0.1 mmol/kg/day i.p.): 105 ± 5 mg
- Mean weight Kidneys ([4]; 0.5 mmol/kg/day i.p.): 468 ± 15 mg
- Mean weight Prostate ([4]; 0.5 mmol/kg/day i.p.): 4.1 ± 0.5 mg
- Mean weight Seminal Vesicles ([4]; 0.5 mmol/kg/day i.p.): 25 ± 1 mg
- Mean weight Testes ([4]; 0.5 mmol/kg/day i.p.): 59 ± 2 mg

SMILES: C[C@]12CC[C@@H]3c4ccc(O)cc4CC[C@H]3[C@@H]1CC=C2c1cccnc1 [Ex. 6, 17-(3-Pyridyl)estra-1,3,5[10],16-tetraen-3-ol]
- IC50 [6, 8]: 0.0026 µM
- IC50 [7, 9]: 0.0018 µM

SMILES: C[C@]12CC[C@@H](O)C[C@@H]1CC[C@@H]1[C@@H]2CC[C@]2(C)C(c3cccnc3)=CC[C@@H]12 [Ex. 8, 17-(3-Pyridyl)-5α-androst-16-en-3α-ol]
- IC50 [6]: 0.0043 µM
- IC50 [7]: 0.0025 µM

SMILES: C[C@]12CCC(=O)C[C@@H]1CC[C@@H]1[C@@H]2CC[C@]2(C)C(c3cccnc3)=CC[C@@H]12 [Ex. 9, 17-(3-Pyridyl)-5α-androst-16-en-3-one]
- IC50 [7]: 0.003 µM

SMILES: C[C@]12CCC(=O)C=C1CC[C@@H]1[C@@H]2C(=O)C[C@]2(C)C(c3cccnc3)=CC[C@@H]12 [Ex. 10, 17-(3-Pyridyl)androsta-4,16-diene-3,11-dione]
- IC50 [6, 8]: 0.0091 µM
- IC50 [7, 9]: 0.0025 µM

SMILES: C[C@]12CCC(=O)C=C1[C@H](F)C[C@@H]1[C@@H]2CC[C@]2(C)C(c3cccnc3)=CC[C@@H]12 [Ex. 12, 6β-Fluoro-17-(3-pyridyl)androsta-4,16-dien-3-one]
- IC50 [6, 8]: 0.0033 µM
- IC50 [7, 9]: 0.0022 µM

SMILES: C[C@]12CCC(=O)C=C1[C@@H](F)C[C@@H]1[C@@H]2CC[C@]2(C)C(c3cccnc3)=CC[C@@H]12 [Ex. 13, 6α-Fluoro-17-(3-pyridyl)androsta-4,16-dien-3-one]
- IC50 [6, 8]: 0.0053 µM
- IC50 [7, 9]: 0.0032 µM

SMILES: C[C@]12CC[C@H](O)CC1=CC[C@@H]1[C@@H]2CC[C@]2(C)C(c3ccccn3)=CC[C@@H]12 [Example 2-Pyridyl, reference compound]
- IC50 [6]: 0.32 µM
- IC50 [7]: 0.13 µM

SMILES: C[C@]12CC[C@H](O)CC1=CC[C@@H]1[C@@H]2CC[C@]2(C)C(Cc3ccccn3)=CC[C@@H]12 [Example 2-picolyl, reference compound]
- IC50 [6, 10]: > 10 µM
- IC50 [7, 11]: > 10 µM

SMILES: C[C@]12CC[C@H](O)CC1=CC[C@@H]1[C@@H]2CC[C@]2(C)C(c3ccncc3)=CC[C@@H]12 [Example 4-pyridyl, reference compound]
- IC50 [6, 10]: 5 µM
- IC50 [7, 11]: 2 µM

SMILES: CC(=O)N1CCN(c2ccc(OCC3COC(Cn4ccnc4)(c4ccc(Cl)cc4Cl)O3)cc2)CC1 (stereo not drawn) [Ketoconazole, reference compound]
- Post mortem examination: livers [2]: brown
- Mean weight Kidneys ([4]; 0.01mmol/kg/day i.p.): 637 ± 22 mg
- Mean weight Prostate ([4]; 0.01mmol/kg/day i.p.): 9.1 ± 0.8 mg
- Mean weight Seminal Vesicles ([4]; 0.01mmol/kg/day i.p.): 235 ± 18 mg
- Mean weight Testes ([4]; 0.01mmol/kg/day i.p.): 141 ± 5 mg
- Mean weight Kidneys ([4]; 0.225 mmol/kg/day i.p.): 574 ± 23 mg
- Mean weight Prostate ([4]; 0.225 mmol/kg/day i.p.): 10.8 ± 1.4 mg
- Mean weight Seminal Vesicles ([4]; 0.225 mmol/kg/day i.p.): 171 ± 5 mg
- Mean weight Testes ([4]; 0.225 mmol/kg/day i.p.): 127 ± 7 mg
- Mean weight Kidneys ([4]; 0.5 mmol/kg/day i.p.): 710 ± 30 mg
- Mean weight Prostate ([4]; 0.5 mmol/kg/day i.p.): 9.3 ± 0.9 mg
- Mean weight Seminal Vesicles ([4]; 0.5 mmol/kg/day i.p.): 179 ± 20 mg
- Mean weight Testes ([4]; 0.5 mmol/kg/day i.p.): 133 ± 6 mg
- LH ([5]; 0.1Mmol/Kg/Day i.p.): 0.39 ± 0.14 ng/mL
- LH ([5]; 0.225Mmol/Kg/Day i.p.): 0.75 ± 0.02 ng/mL
- LH ([5]; 0.5Mmol/Kg/Day i.p.): 0.76 ± 0.03 ng/mL
